Source: ChEMBL document CHEMBL1201862, “PubChem BioAssay data set” (2004)
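Where inhibition never reached the appropriate level, the endpoint shown equals the highest concentration tested. Otherwise, values were interpolated linearly from a five-concentration, 48-hour dose response in 96-well plates. Here, GI50 denotes the concentration required for 50% inhibition of growth.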 Active and inactive are the calls of the source. No stated cut-off is given here; in the data, active = GI50 up to about 1.1 µM and inactive = higher.

What was measured:
Assay in all cases: NCI tumour cell line growth inhibition, 48 h
[1] = tested on: A498
[2] = tested on: ACHN
[3] = tested on: CCRF-CEM
[4] = tested on: HT-29
[5] = tested on: K562
[6] = tested on: M14
[7] = tested on: Malme-3M
[8] = tested on: NCI-H460
[9] = tested on: NCI-H522
[10] = tested on: OVCAR-5
[11] = tested on: SF-268
[12] = tested on: SF-295
[13] = tested on: SF-539
[14] = tested on: SK-OV-3
[15] = tested on: SN12C
[16] = tested on: SNB-19
[17] = tested on: SW-620
[18] = tested on: U-251
[19] = tested on: CAKI-1
[20] = tested on: OVCAR-4

Measured: GI50

CC(C)(C)CI
inactive: [1] 41.6 µM | [2] 20.7 µM | [3] 21.4 µM | [4] > 10 µM | [5] 21.6 µM | [6] 25 µM | [7] 19.7 µM | [8] 27.9 µM | [9] 17.5 µM | [10] 32.2 µM | [11] 33.7 µM | [12] 18.5 µM | [13] 88.5 µM | [14] 48.4 µM | [15] 18.4 µM | [16] 23 µM | [17] 18.1 µM | [18] 26.2 µM

O=C(O)c1ccc([Se][Se]c2ccc(C(=O)O)cc2)cc1
inactive: [19] 19.4 µM | [6] 18.5 µM | [7] 26.1 µM | [8] 6.65 µM | [9] 23.6 µM | [20] 19.2 µM | [10] 23.5 µM | [11] 33.9 µM | [12] 23.6 µM | [13] 36.1 µM | [15] 37.5 µM | [16] 34.1 µM | [17] 32.4 µM | [18] 21.1 µM

C=CCN1C(N)=C(C(N)=O)S/C1=C1/SC(=S)N(c2ccc(C)cc2)C1=O
inactive: [1] 3.65 µM | [2] > 100 µM | [3] > 100 µM | [4] > 100 µM | [5] > 100 µM | [7] 36.8 µM | [8] > 100 µM | [9] > 100 µM | [10] 5.66 µM | [11] > 100 µM | [12] 49.8 µM | [13] > 100 µM | [14] > 100 µM | [16] > 100 µM | [17] > 100 µM | [18] > 100 µM

CC1(C)CCCC2(C)[C@@H]1CC[C@]13C[C@](C)(CC[C@@H]21)[C@@H]3CO (some centres undefined)
inactive: [2] > 100 µM | [19] > 100 µM | [3] > 100 µM | [4] > 100 µM | [5] > 100 µM | [6] > 100 µM | [7] > 100 µM | [8] > 100 µM | [9] > 100 µM | [20] > 100 µM | [10] > 100 µM | [11] > 100 µM | [12] > 100 µM | [13] > 100 µM | [14] > 100 µM | [15] > 100 µM | [16] > 100 µM | [17] > 100 µM | [18] > 100 µM

O=C1N=C(SC(SC2=NC(=O)C3(NN2)c2ccccc2-c2ccccc23)=C(SC2=NC(=O)C3(NN2)c2ccccc2-c2ccccc23)SC2=NC(=O)C3(NN2)c2ccccc2-c2ccccc23)NNC12c1ccccc1-c1ccccc12
inactive: [2] 2.07 µM | [19] > 10 µM | [3] 5.21 µM | [4] 6.61 µM | [5] 5.11 µM | [6] 8.71 µM | [7] > 10 µM | [8] 3.33 µM | [9] 4.54 µM | [20] 8.07 µM | [11] > 10 µM | [12] > 10 µM | [13] > 10 µM | [14] > 10 µM | [15] 6.5 µM | [16] > 10 µM | [17] > 10 µM

COP(=O)(OC)C(N)CCSC (centres undefined)
inactive: [2] > 100 µM | [19] > 100 µM | [3] > 100 µM | [4] > 100 µM | [5] > 100 µM | [6] > 100 µM | [7] > 100 µM | [8] > 100 µM | [9] > 100 µM | [20] > 100 µM | [10] > 100 µM | [11] > 100 µM | [12] > 100 µM | [14] > 100 µM | [15] > 100 µM | [16] > 100 µM | [17] > 100 µM | [18] > 100 µM

Cc1c(C#N)c2nnn(C)c(=O)n2c1-c1ccccc1
inactive: [1] 98.6 µM | [2] > 100 µM | [19] > 100 µM | [3] 64.1 µM | [6] > 100 µM | [8] > 100 µM | [20] > 100 µM | [10] > 100 µM | [11] > 100 µM | [12] 51.6 µM | [13] > 100 µM | [14] > 100 µM | [15] > 100 µM | [16] > 100 µM | [17] > 100 µM | [18] > 100 µM

CC(C)OP(=O)(OC(C)C)/C(=N/Nc1ccc([N+](=O)[O-])cc1)NCCO
inactive: [1] 3.15 µM | [2] 54.1 µM | [19] > 100 µM | [3] > 100 µM | [5] 71.8 µM | [6] > 100 µM | [7] > 100 µM | [8] > 100 µM | [9] > 100 µM | [20] > 100 µM | [10] > 100 µM | [11] > 100 µM | [13] > 100 µM | [15] > 100 µM | [16] > 100 µM | [17] > 100 µM | [18] > 100 µM

O=C(c1ccc(Cl)cc1)N1CCN=C1c1cc2ccccc2c2ccccc12
inactive: [1] 15.4 µM | [2] 17.4 µM | [19] 15.7 µM | [3] 27.4 µM | [4] 15.8 µM | [5] 27.7 µM | [6] 38.7 µM | [7] 17.3 µM | [8] 11.5 µM | [20] 14.2 µM | [10] 19.8 µM | [11] 16.7 µM | [12] 16.6 µM | [13] 15.7 µM | [14] 16.1 µM | [15] 16.9 µM | [16] 16.4 µM | [17] 17.3 µM | [18] 16.3 µM

COc1cc2c3c(n(C)c(=O)c2cc1OC)-c1cc2c(cc1/C3=C/CCCCBr)OCO2
inactive: [1] 19.8 µM | [2] 4.4 µM | [19] 5.86 µM | [3] 1.7 µM | [4] > 100 µM | [5] 35.6 µM | [6] 32.9 µM | [7] > 100 µM | [8] 17.8 µM | [9] 4.16 µM | [10] > 100 µM | [11] 37.4 µM | [12] 4.5 µM | [14] > 100 µM | [16] > 100 µM | [17] 16.1 µM | [18] 40.9 µM

Cc1sc(Cc2ccccc2)nc1-c1ccc(N)cc1
inactive: [1] 29.4 µM | [2] 31.2 µM | [19] 24 µM | [3] 15.9 µM | [4] 22.6 µM | [5] 20.7 µM | [6] 20.6 µM | [7] 31.3 µM | [8] 23 µM | [9] 16 µM | [20] 12.7 µM | [10] 32.5 µM | [11] 25 µM | [12] 37.4 µM | [15] 21.1 µM | [16] 48.4 µM | [17] 23.7 µM | [18] 26.6 µM
